Molecules are shown by their SMILES.

Data set [1] is described as follows: Solubility determination in ethyl acetate (parts by weight of solvent needed to dissolve one part of yellow dye). As to conditions: Ethylacetat, 60°C. In kind it is physicochemical. As to the method:
Von den erfindungsgemäßen Verbindungen II-1, 11-5 und III-1 sowie von den strukturanalogen Vergleichsverbindungen V-1, V-2, V-3, V-4, V-5 und V-6 wurden deren Löslichkeit in Ethylacetat bei 60°C bestimmt. Hierzu wurde ermittelt, wieviele Gewichtsteile Lösungsmittel zum Lösen eines Gewichtsteils Gelbfarbstoff erforderlich sind. Die miteinander zu vergleichenden Farbstoffe unterschieden sich jeweils ausschließlich in der Substitution des Phenylazorestes

The nature of data set [2]: Dissolving the mask coupler in tricresyl phosphate/ethyl acetate for dispersion preparation. Format: physicochemical. As to conditions: 55°C. As for the experimental part:
Von der erfindungsgemäßen Verbindung 11-1 wurde die Dispersion la und von der betreffenden Vergleichsverbindung V-2 wurde die Dispersion lb jeweils nach der nachfolgend beschriebenen Vorschrift hergestellt. 100 g Maskenkuppler werden in einer Abmischung aus 100 g Trikresylphosphat und 300 g Ethylacetat bei 55^*C gelöst. […] Die Lösung wird in 1 kg einer 7,5 %igen wäßrigen Gelatine, die ebenfalls auf 55°C erhitzt ist und mit 10 g Alkanol XC versehen war, mit einem hochtourigen Mischer einemulgiert. Anschließend wurde das niedrig siedende Lösungsmittel im Vakuum entfernt und die zurückbleibende Dispersion bei 6°C erstarrt.
Gemäß der im Beispiel 2 beschriebenen allgemeinen Vorschrift wurde aus der erfindungsgemäßen Verbindung 11-5 die Dispersion 2a und aus der betreffenden Vergleichsverbindung V-4 die Dispersion 2b hergestellt. (Die Vergleichsverbindung V-4 mußte, damit sie in Lösung ging, in der hydrophoben Dispersionsphase auf 70°C erhitzt werden).

With `CCCCCCCCCCCCCC(=O)Nc1ccc(Cl)c(NC2=NN(c3c(Cl)cc(Cl)cc3Cl)C(=O)C2N=Nc2ccc(OC(C)C)c(OC(C)C)c2)c1` (centres unmarked) [II-1], in data set [1], the “1 Gew.-Teil Verbindung löst sich in X Gew.-Teilen Ethyl-acetat” value (from here on “1 Gew.-Teil Verbindung löst sich”) is 2,5 Gew.-Teilen Ethyl-acetat. As for `CCCCCCCCCCCCCC(=O)Nc1ccc(Cl)c(NC2=NN(c3c(Cl)cc(Cl)cc3Cl)C(=O)C2N=Nc2ccc(OC)c(OC)c2)c1` (centres unmarked) [V-1], the “1 Gew.-Teil Verbindung löst sich” value in data set [1] is reported as 15 Gew.-Teilen Ethyl-acetat.

Consider `CCCCCCCCCCCCCC(=O)Nc1ccc(Cl)c(NC2=NN(c3c(Cl)cc(Cl)cc3Cl)C(=O)C2N=Nc2ccc(OCC)c(OCC)c2)c1` (centres unmarked) [V-2], for which the “1 Gew.-Teil Verbindung löst sich” value in data set [1] worked out at 19 Gew.-Teilen Ethyl-acetat. In data set [2], the “Dissolution of 100 g Maskenkuppler in 100 g Trikresylphosphat and 300 g Ethylacetat” value is “mußte neben Ethylacetat noch soviel Tetrahydrofuran zugesetzt werden, daß sie bei 55 °C in Lösung ging”. Regarding `CCCCCCCCCCCCCC(=O)Nc1ccc(Cl)c(NC2=NN(c3c(Cl)cc(Cl)cc3Cl)C(=O)C2N=Nc2ccc(OCCC)c(OCCC)c2)c1` (centres unmarked) [V-3], the “1 Gew.-Teil Verbindung löst sich” value in data set [1] is 23 Gew.-Teilen Ethyl-acetat.
